According to patent publication US8574547B2, “Photoacoustic probes and methods of imaging” (The Board of Trustees of the Leland Stanford Junior …, priority 2007, dated 2013):

Molecular target: T1, αvβ3 integrin (Homo sapiens, UniProt P05106+P06756)
T1 construct: endogenous in cells
Assay: Targeting ability: imaging inhibition of Alexa488 conjugated αvβ3 integrin antibody binding to cells
Type: cell-based
Conditions: cells incubated 1 hour with substance, then ½ hour with Alexa488 conjugated αvβ3 integrin antibody
Protocol: FIGS. 7(1)-7(4) illustrate digital images of cells that were incubated for 1 hour with PBS (FIG. 7(1)), QSY-21 (FIG. 7(2)), […] (FIG. 7(3)), and […] (FIG. 7(4)). Then the cells were incubated for ½ hour with Alexa488 conjugated αvβ3 integrin antibody.
Targeting ability of the conjugate was tested by imaging inhibition of the avb3 intergrin antibody. Cells were incubated for 1 hour with PBS (FIG. 7(1)), QSY-21 (FIG. 7(2)), RGD-QSY21 (FIG. 7(3)), and RGD (FIG. 7(4)). Then the cells were incubated for ½ hour with Alexa488 conjugated αvβ3 integrin antibody.

T1 sequence (P06756 31-889 limits assumed): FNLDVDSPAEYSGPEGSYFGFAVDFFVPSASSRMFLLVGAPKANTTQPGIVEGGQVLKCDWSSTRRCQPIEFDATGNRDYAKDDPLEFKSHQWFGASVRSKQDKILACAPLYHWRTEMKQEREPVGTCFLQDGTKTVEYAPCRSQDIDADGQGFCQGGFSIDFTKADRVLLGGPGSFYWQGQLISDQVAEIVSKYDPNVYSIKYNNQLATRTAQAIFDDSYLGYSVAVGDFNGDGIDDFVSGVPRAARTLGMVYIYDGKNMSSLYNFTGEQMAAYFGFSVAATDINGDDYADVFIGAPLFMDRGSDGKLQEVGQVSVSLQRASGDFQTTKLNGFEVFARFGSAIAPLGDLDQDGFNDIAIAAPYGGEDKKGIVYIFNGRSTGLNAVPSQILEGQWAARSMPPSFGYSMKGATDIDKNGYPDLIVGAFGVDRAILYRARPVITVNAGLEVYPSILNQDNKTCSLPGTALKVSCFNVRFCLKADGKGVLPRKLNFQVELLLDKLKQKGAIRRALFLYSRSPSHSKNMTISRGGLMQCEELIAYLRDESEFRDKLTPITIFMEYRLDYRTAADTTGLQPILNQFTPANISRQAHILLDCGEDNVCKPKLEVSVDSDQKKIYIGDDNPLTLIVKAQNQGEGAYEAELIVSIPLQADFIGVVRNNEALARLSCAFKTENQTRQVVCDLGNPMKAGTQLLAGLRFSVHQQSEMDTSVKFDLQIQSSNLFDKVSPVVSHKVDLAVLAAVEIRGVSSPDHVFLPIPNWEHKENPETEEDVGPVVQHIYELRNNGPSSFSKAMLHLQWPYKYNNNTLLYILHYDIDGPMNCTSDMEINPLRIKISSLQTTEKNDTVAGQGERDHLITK
T1 sequence (P06756 891-1048 partner limits assumed): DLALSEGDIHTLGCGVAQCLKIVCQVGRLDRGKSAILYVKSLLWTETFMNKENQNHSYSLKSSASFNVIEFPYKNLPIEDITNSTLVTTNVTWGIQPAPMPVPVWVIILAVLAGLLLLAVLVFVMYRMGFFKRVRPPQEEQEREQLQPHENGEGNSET
T1 sequence (P05106 27-788): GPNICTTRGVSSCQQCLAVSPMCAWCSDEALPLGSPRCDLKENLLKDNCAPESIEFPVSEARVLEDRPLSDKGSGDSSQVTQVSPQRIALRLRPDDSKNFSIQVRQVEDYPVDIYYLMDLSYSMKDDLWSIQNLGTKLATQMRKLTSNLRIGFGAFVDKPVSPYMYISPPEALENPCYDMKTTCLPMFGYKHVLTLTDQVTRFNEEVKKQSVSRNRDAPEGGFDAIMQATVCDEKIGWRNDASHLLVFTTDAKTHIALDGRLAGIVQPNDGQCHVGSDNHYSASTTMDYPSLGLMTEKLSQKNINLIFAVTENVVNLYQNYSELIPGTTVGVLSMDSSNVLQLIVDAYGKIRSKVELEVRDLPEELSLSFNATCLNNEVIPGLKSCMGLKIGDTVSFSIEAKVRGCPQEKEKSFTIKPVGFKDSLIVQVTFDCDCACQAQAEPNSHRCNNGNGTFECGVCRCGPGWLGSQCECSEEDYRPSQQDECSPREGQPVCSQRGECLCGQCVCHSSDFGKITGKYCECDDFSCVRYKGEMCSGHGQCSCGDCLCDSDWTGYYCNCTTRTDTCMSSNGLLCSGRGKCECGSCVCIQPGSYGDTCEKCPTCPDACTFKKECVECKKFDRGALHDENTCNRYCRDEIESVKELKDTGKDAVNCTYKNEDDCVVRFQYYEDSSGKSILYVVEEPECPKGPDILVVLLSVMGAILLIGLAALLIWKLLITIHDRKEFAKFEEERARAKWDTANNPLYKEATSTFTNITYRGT

Arg-Gly-Asp [RGD]
inhibition of αvβ3 integrin antibody binding: inhibition of antibody binding
